These results are taken from PMC12260939, “Radiosynthesis and Evaluation of ^11C‑Labeled Imidazolyl Pyrimidine Derivatives for Positron Emission Tomography Imaging of Glycogen Synthase Kinase‑3” (ACS Pharmacology & Translational Science, 2025).

Converted amounts (≈) assume the structure as drawn.

One series deals with human recombinant GSK3β (Homo sapiens, UniProt P49841). Kind of series: GSK3β scintillation proximity assay (SPA), inhibition of kinase activity. It is filed as biochemical. The protocol: The inhibition of GSK3β activity is assessed using a scintillation proximity assay (SPA) in a 96-well microtiter plate format. The assay utilizes purified human recombinant GSK3β enzyme (∼1 nM active), [γ-^33P]-ATP (0.04 μCi), and a biotinylated peptide substrate (Biotin-[…](PO3H2)-PQL) at a final concentration of 2 μM. Reactions are carried out in an assay buffer containing MOPS, EDTA, β-mercaptoethanol, Brij 35, glycerol, and BSA, and preincubated for 10–15 min at room temperature. Inhibitor testing is conducted in duplicate using 10 different concentrations. The kinase reaction is initiated by adding ATP (1 μM final) in the presence of 50 mM Mg(Ac)2. After a 15 min incubation at room temperature, the reaction is terminated by adding a solution (25 μL) containing 5 mM EDTA, 50 μM ATP, 0.1% Triton X-100, and 10 mg/mL streptavidin-coated SPA beads, followed by the addition of distilled water (50 μL). After a 6-h incubation, bound radioactivity is measured using a MicroBeta Trilux liquid scintillation counter (1450 MicroBeta Trilux, Wallac). Data are analyzed using nonlinear regression with variable slope (GraphPad Prism or Excel Fit), and results are reported as Ki values calculated via the Cheng-Prusoff equation.
Chain of human recombinant GSK3β (P49841 whole entry): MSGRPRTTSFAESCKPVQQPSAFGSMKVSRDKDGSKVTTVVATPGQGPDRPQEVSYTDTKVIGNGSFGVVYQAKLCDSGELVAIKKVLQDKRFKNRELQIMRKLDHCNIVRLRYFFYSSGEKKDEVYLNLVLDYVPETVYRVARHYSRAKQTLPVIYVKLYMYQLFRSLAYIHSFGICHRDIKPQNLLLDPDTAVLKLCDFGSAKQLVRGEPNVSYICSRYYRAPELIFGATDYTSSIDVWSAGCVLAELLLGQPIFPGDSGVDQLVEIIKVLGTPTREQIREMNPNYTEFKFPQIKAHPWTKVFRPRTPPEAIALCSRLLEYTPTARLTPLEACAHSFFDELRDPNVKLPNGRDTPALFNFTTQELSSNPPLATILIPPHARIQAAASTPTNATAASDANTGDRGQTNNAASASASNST
Background: SPA uses beads or plates that emit light when radiolabelled molecules are held near them.

The subject of the next series is GSK-3β. Kind of series: In vitro autoradiography on rat brain tissue sections. Conditions: rat brain sections, baseline. It counts as binding. The protocol: In the next step, we performed in vitro autoradiography studies on rat brain tissue sections to investigate the binding selectivity and distribution of compounds [^3H]13a–13e (Figure ). […] These findings support the potential of this compound series for further development as GSK-3β-targeted neuroimaging probes.
In vitro autoradiography was conducted on 10 μm thick cry-cut tissue sections of rat tissue that had been thaw-mounted onto microscope slides. The brain sections were incubated in 50 mM Tris-HCl buffer at room temperature and then incubated with [^3H]-ligand for 30 min. The sections were rinsed three times for 10 min each in Tris buffer at 1 °C, followed by a quick rinse in deionized water at 1 °C, and then air-dried at room temperature with a fan. The radiolabeled sections and Amersham plastic tritium standards were then exposed to phosphoimager plates (Fuji BAS-TR2040) overnight. Blocking studies were conducted using a 1000-fold excess of the cold reference compounds, and validated GSK-3β inhibitors AR-A014418 and SB-216763. […] This micromolar concentration is consistent with established methods for GSK-3 radioligand autoradiography blocking experiments.

Another series in a line: Protein binding (% free). It is filed as in vitro ADME. Conditions: read-out: mean Prot binding (% free).
A further series is described as follows: Solubility. It is filed as physicochemical. Conditions: in dry DMSO at pH = 7.4. The protocol:
(§1) Multiparameter optimization (MPO) and brain/plasma concentration at steady-state (logBB) are widely used to predict BBB permeability. […] A detailed ADME/PK (absorption, distribution, metabolism, excretion and pharmacokinetics) profiling was conducted, and the results are listed in Table . […] These values meet the standards that BBB permeability is considered high if Papp A–B is ≥ 3.0 × 10^–6 cm/s and the efflux ratio is <3.0.

Series [1] is described as follows: Intrinsic clearance (CLint). Particulars: cells (cell type not named); read-out: median CLint. It is filed as in vitro ADME.
In series [2] the target is GSK-3. Briefly: Radioligand saturation binding assay with tritiated ligands in hippocampal membranes. Particulars: tritiated ligand, hippocampus of SD rat brains. More on the design: species or system Sprague–Dawley rat. As for the experimental part: The pharmacology and physicochemical properties of compounds 13a–13e are depicted in Table . To evaluate binding affinities, saturation binding assays using tritiated ligands [^3H]13a, [^3H]13c, [^3H]13d, [^3H]13e (Scheme S1) were performed using the hippocampal tissue of Sprague–Dawley (SD) rat brains. As depicted in Table A, total binding (TB), nonspecific binding (NSB), and specific binding (SB) of the respective tritiated ligands were measured with increasing concentrations of the radioligands. The dissociation constant (Kd) and capacity (B max) of each radioligand were calculated to confirm their binding affinity.
For membrane preparation, hippocampal tissue from adult rats (Sprague–Dawley) was dissected out, weighed, and frozen in 0.32 M sucrose at −70 °C. On the experiment day, the tissue was thawed, homogenized in 50 mM Tris, 5 mM EDTA (pH 7.4) and then centrifuged at 48 000 xg for 15 min at +4 °C. The pellet was diluted in binding buffer (50 mM Tris, 4 mM MgCl2, 1 mM EDTA pH 7.4) to a final concentration of 2.5 mg w.w./mL. Saturation binding experiments were performed in duplicate, with each tube containing 1 mg w.w. in 0.5 mL binding buffer and 0.1 – 17 nM (11–12 concentrations) of radioligand. Nonspecific binding was measured by adding 10 μM AR-A014418. The assays were incubated for 2–3 h at room temperature and terminated by quick filtration using Whatman GF/B filters pretreated with 0.3% polyethylenimine on a Brandel cell harvester. Radioactivity was measured with a Packard Tri-Carb 2900TR liquid scintillation counter, and data were processed by nonlinear regression analyses using PRISM 4.03.

A further series addresses hERG channel (Homo sapiens, UniProt Q12809). Briefly: hERG channel inhibition.
The nature of series [3]: Unbound fraction in brain (fu brain). It is filed as in vitro ADME. As for the experimental part:
as §1

For series [4], the system named is GSK-3. Briefly: NHP PET imaging of brain uptake. It is filed as in vivo, cynomolgus monkeys. Conditions: i.v. bolus, baseline. The text has this: (§2) Then, we sought to assess the in vivo PET imaging performance characteristics of [^11C]13a–e in NHPs, and the results are presented in Figure . […] One potential contributor is metabolic instability of those tracers may reduce the amount of intact tracers to cross the BBB. Another important consideration is efflux by ATP-binding cassette (ABC) transporters, such as P-glycoprotein (P-gp) that is highly expressed at the BBB and can actively pump substrates out of the CNS. To investigate whether 13a–e are P-gp efflux substrates, a P-gp inhibition study was conducted. […] To enhance brain uptake in future analogs, various medicinal chemistry strategies could be employed, such as hydrogen bond donor/acceptor optimization, fine-tuning lipophilicity, steric shielding of efflux motifs, and bioisosteric replacements. A potential limitation of this study is the lack of blood sampling during the PET scans, which precluded assessment of [^11C]13e plasma concentrations following tariquidar pretreatment. […]
(§3) PET experiments were conducted on anesthetized healthy cynomolgus monkeys, following approval from the Stockholm Animal Research Ethical Committee (Dnr. 4820/06–600). […] The monkeys’ heads were stabilized with a fixation device, and body temperature was regulated with a Bair Hugger model 505 (Arizant Healthcare, MN, USA) and continuously monitored using an esophageal thermometer. […]

The next series concerns P-glycoprotein (P-gp). Briefly: P-gp inhibition PET study (tariquidar pretreatment) in NHP. It counts as in vivo, cynomolgus monkeys.
Text: as §2, §3

Series [5] can be described thus: Pharmacokinetics: half-life and bioavailability. Particulars: in vivo.
A short description of series [6]: Apparent permeability (Papp A-B) and efflux ratio. It counts as in vitro ADME. As for the experimental part: as §1

By Ki is commonly meant the equilibrium dissociation constant of an inhibitor or competing ligand from its target. A word on the IC50: it is the concentration at which inhibition is half-maximal. In general, solubility refers to the dissolved amount per volume that the medium holds. A low value points to little dissolved substance. As usually defined, the Kd is the equilibrium constant for the complex coming apart. Read a high Kd as lower affinity. What is called bioavailability is dose-corrected exposure relative to a reference, in per cent. High values mean good availability, low ones poor availability. By efflux ratio is commonly meant the permeability from basolateral to apical divided by that in the opposite direction, in the common usage.

Chain of hERG channel (Q12809 whole entry): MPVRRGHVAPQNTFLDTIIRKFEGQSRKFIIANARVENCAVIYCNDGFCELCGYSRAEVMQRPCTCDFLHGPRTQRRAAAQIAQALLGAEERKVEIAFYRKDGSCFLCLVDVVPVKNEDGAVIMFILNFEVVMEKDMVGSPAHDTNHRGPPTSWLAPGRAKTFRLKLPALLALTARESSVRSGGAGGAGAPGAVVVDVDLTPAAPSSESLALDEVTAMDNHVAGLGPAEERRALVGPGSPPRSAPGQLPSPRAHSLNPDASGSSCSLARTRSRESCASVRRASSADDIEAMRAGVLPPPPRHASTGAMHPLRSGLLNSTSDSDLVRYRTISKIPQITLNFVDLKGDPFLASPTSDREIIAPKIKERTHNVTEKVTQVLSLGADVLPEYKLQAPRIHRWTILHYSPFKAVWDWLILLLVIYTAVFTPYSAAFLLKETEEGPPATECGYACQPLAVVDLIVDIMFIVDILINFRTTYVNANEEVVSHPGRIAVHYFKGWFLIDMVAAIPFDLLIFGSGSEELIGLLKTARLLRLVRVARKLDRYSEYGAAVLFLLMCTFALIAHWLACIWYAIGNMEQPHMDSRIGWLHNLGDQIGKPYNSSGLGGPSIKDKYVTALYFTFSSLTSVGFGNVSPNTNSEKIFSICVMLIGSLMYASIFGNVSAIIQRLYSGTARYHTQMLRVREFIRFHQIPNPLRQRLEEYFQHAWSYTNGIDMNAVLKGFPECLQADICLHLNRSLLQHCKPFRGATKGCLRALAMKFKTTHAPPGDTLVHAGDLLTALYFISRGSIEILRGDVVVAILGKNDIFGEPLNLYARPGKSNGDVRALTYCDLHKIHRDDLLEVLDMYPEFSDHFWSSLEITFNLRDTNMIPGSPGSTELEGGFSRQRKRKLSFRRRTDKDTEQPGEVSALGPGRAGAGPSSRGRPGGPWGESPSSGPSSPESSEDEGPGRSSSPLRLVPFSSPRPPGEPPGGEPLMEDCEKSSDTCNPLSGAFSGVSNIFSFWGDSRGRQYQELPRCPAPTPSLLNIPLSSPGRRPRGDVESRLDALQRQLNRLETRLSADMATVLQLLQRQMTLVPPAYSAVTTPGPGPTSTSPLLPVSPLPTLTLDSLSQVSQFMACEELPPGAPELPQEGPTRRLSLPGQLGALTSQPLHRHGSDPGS

As for `CC(=O)N1CCN(Cc2ccc(Nc3ncc(F)c(-c4cnc(C)n4C4CCOCC4)n3)cc2)CC1` [13e], on human recombinant GSK3β (GSK-3β, calculated via the Cheng-Prusoff equation), the Ki is 3.33 nM. The half-inhibitory concentration (IC50) at human recombinant GSK3β (SPA, 1 μM ATP) worked out at 4.44 nM; at hERG channel, 20500 nM. Moreover, in the series on GSK-3β (by brain region), the “regional binding in autoradiography” value was “high binding in the cortex and hippocampus, moderate uptake in the striatum and cerebellum, and relatively low binding in the thalamus”. Moreover, the “radioactive accumulation / distribution in autoradiography” value in the series on GSK-3β (tritiated ligand) is “highest and most regionally distinct uptake”. For the same molecule, the fraction unbound in the series “Protein binding (% free)” was determined as 0.111; in series [3] it was 0.12. The amount in solution in “Solubility” (solubility) came to 362 µM (≈ 179 µg/mL). Further, the hepatocyte CLint in [1] is 12 µL/min/1e6 cells. For the same molecule, binding on GSK-3 [2] was put at a Kd of 2.94 nM. In addition, in the series with GSK-3 [4], the “brain uptake (PET)” value was “relatively higher signals in the brain”. In addition, in the series with P-glycoprotein (P-gp) (NHP PET), the P-gp substrate status result is on record as “P-glycoprotein substrate”. Moreover, the “brain uptake after P-gp inhibition” value in the series on P-glycoprotein (P-gp) (NHP, Tariquidar 6 mg/kg) is on record as “significantly increased the brain uptake”. In addition, in series [5], the bioavailability stood at 10.1%. Moreover, the half-life in series [5] (read-out: mean t 1/2 (converted)) was 1.73 h. For the same molecule, the “P app A-B” value in series [6] is reported as 12.7 × 10^–6 cm/s. For the same molecule, the efflux ratio in series [6] (not told, Papp B–A/Papp A–B) is 1.4.
